Legend:
[1] = molecular target: T1, A1 receptors (Rattus norvegicus, UniProt P25099); test: Binding to adenosine A1 receptors: competitive displacement of [^3 H] PIA, rat brain membranes; conditions: [^3 H] PIA 2.5 nM, n=3; for inhibition at 10 µM: 10^-5 M, read-out: % displacement of the labeled ligand, A1, 1E-5M; for % displacement of the labeled ligand, A1, 1E-7M: 0.1 µM
T1 construct: the brain is quickly removed and washed in cold isotonic solution; from tissue; host or cells: rat brain hemispheres (membrane homogenate)
T1 sequence (P25099 1-326): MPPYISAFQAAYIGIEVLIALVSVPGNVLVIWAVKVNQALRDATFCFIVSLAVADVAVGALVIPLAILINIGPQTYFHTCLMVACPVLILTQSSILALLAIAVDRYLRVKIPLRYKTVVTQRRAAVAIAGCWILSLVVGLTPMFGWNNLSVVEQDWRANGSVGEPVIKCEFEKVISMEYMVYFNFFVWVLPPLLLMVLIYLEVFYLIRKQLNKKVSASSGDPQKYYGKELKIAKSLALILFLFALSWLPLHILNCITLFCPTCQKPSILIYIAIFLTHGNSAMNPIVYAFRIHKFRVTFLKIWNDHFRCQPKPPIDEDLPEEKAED
Procedure: (§1) The affinity of the products of the Examples for the rat central A1 and A2 adenosinergic receptors is determined by the competitive technique using a radioactive ligand specifically bound either to the A1 receptors ([^3 H] PIA) or to the A2 receptors ([^3 H] NECA).
After the animal has been sacrificed by decapitation, the brain is quickly removed and washed in cold isotonic solution. The two hemispheres are separated and weighed and each of them is introduced into a polyallomer tube containing 25 volumes of cold homogenization buffer. Homogenization is effected using an Ultra-Turrax for 30 seconds (3 times 10 seconds with 10-second intervals, 70% of the maximum speed). The ground material obtained is centrifuged at 1000 g (≈3000 rpm) for 10 minutes at 4° C.
The supernatant is centrifuged again at 48,000 g (≈20,000 rpm) for 20 minutes at 4° C.
When this step is complete, the residue is taken up with 4 volumes of homogenization buffer, resuspended using a Vortex and homogenized with the Ultra-Turrax. Adenosine deaminase is then added at a rate of 1 U/ml, i.e. 1 μl/ml of homogenate, using a 10 μl Hamilton syringe.
After this treatment, the homogenate is shaken for 30 minutes at room temperature and then centrifuged at […] (≈20,000 rpm) for 30 minutes at 4° C.
The residue obtained is resuspended in 10 volumes of homogenization buffer and passed through the Ultra-Turrax for 20 seconds (2 times 10 seconds with a 10-second interval, 70% of the maximum speed).
The homogenate prepared in this way is used for the competitive tests. It is kept at 4° C. if the studies take place the same day, or stored at -20° C. in the form of 10 ml aliquots.
After the homogenate has been thawed at room temperature, it is passed through a Potter homogenizer (6 manual to-and-fro movements, speed 6), diluted to 2/5 in incubation buffer and placed in a water bath thermostated at 4° C., with shaking, until the end of the experiment.
(§2) 50 μl of [^3 H] PIA at 100 nM, i.e. 2.5 nM in the final reaction medium allowing for the 1/40 dilution, and 50 μl of the product of the Example at the concentrations considered (10^-5 M and 10^-7 M) are introduced into the reaction tubes. The reaction is initiated by the addition of 1 ml of homogenate and 900 μl of incubation buffer. The procedure is identical for all the beta-blockers studied.
(§3) The tubes are shaken and incubated in a water bath at 20° C. for 30 minutes. When the incubation is complete, the contents of the tubes are filtered on Whatman GF/B paper. Each tube is washed twice with 2 ml of rinsing buffer and then the filters themselves are rinsed with 3 ml of this same buffer.
The filters are then transferred to counting flasks and 10 ml of liquid scintillator (Ready Solv HP/b, Beckman) are added.
After they have been shaken, the flasks are stored in a refrigerator overnight and the radioactivity is then determined in a liquid scintillation counter.
(§4) 3 tests are performed for each concentration studied. The non-specific binding of the [^3 H] PIA is assessed by measuring the amount of radioactivity retained on the filter in the presence of 10^-5 M phenylisopropyladenosine (PIA). The value of the non-specific binding is systematically subtracted from that of the tests.
(§5) The results are expressed for each product in the form of the percentage displacement (n=3) of the labeled radioligand at concentrations of 10^-5 M and 10^-7 M.

[2] = molecular target: T2, A2 receptors (Rattus norvegicus, UniProt P30543); test: Binding to adenosine A2 receptors: competitive displacement of [^3 H] NECA, rat striatum membranes; conditions: [^3 H] NECA 4 nM, n=3; for inhibition at 10 µM: read-out: % displacement of the labeled ligand, A2, 1E-5M; for % displacement of the labeled ligand, A2, 1E-7M: 0.1 µM
T2 construct: The two hemispheres are separated and the striatum is removed from each of them (Bruns et al., 1986); from tissue; host or cells: rat striatum (membrane homogenate)
Procedure: as §1
After decapitation of the animal, the brain is quickly removed and washed in cold isotonic solution. The two hemispheres are separated and the striatum is removed from each of them (Bruns et al., 1986), weighed and introduced into a polyallomer tube containing 10 volumes of cold homogenization buffer. The tissue is homogenized with an Ultra-Turrax for 30 seconds (3 times 10 seconds with 10-second intervals, 70% of the maximum speed). The ground material is centrifuged at 50,000 g (≈20,500 rpm) for 10 minutes at 4° C.
The residue obtained is resuspended in 10 volumes of homogenization buffer using a Vortex and homogenized with the Ultra-Turrax (5 to 10 seconds, 70% of the maximum speed).
Adenosine deaminase is then added at a rate of 1 U/ml, i.e. 1 μl/ml of homogenate, using a 10 μl Hamilton syringe. The homogenate treated in this way is shaken at room temperature for 30 minutes.
When the incubation is complete, the homogenate is centrifuged at 50,000 g (≈20,500 rpm) for 10 minutes at 4° C.
The residue is taken up with 5 volumes of cold homogenization buffer and passed through the Ultra-Turrax (2 times 10 seconds with a 10-second interval, 70% of the maximum speed) and the homogenate prepared in this way is finally frozen at -70° C.
After the homogenate has been thawed at room temperature, 15 volumes of incubation buffer are added. The homogenate is shaken on a Vortex, passed through a Potter homogenizer (6 to-and-fro movements, speed 6), diluted to 1/10 in incubation buffer and finally placed in a water bath thermostated at 4° C., with shaking, until the end of the experiment.
as §2, with “NECA” for “PIA”, “160” for “100”, “4” for “2.5”, “similar” for “identical”, “compounds” for “beta-blockers”
as §3, with “25°” for “20°”, “60” for “30”, “buffer before being transferred to counting flasks.” for “buffer.”
10 ml of liquid scintillator (Ready Solv HP/b, Beckman) are added to all the flasks. These are shaken and stored in a refrigerator overnight. The radioactivity is determined in a liquid scintillation counter.
as §4, with “NECA” for “PIA”, “determined” for “assessed”, “5 μM N-ethylcarboxamidoadenosine (NECA).” for “10^-5 M phenylisopropyladenosine (PIA).”
as §5

[3] = tested on: twisting and stretching movements in mice; test: Phenylbenzoquinone test (analgesic activity); type: in vivo; conditions: one hour before phenylbenzoquinone i.p., 5 minutes observation; for ED50: Mus musculus, po, read-out: Phenylbenzoquinone test 50% inhibitory dose
Procedure: The intraperitoneal injection of phenylbenzoquinone causes twisting and stretching movements in mice. Analgesics prevent or reduce this syndrome, which can be considered as the exteriorization of diffuse abdominal pain.
A 0.02% solution of phenylbenzoquinone in water is administered in a volume of 1 ml/100 g.
The products of the Examples are administered orally one hour before the injection of phenylbenzoquinone.
The stretching and twisting movements are counted for each mouse over an observation period of 5 minutes.

T2 sequence (P30543 whole entry): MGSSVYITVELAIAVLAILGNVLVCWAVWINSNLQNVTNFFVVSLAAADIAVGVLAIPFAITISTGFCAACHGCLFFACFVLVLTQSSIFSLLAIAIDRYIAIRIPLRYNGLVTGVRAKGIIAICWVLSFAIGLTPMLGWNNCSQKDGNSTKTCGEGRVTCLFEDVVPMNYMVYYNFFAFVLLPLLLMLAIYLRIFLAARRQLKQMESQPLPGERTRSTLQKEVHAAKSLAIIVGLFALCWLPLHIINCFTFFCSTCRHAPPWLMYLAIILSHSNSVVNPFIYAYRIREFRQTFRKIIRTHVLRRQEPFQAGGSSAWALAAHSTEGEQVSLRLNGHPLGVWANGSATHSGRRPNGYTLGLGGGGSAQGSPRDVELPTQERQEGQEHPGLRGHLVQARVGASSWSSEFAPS

Row | inhibition at 10 µM [1] [%] | % displacement of the labeled ligand, A1, 1E-7M ([1]; 10^-7 M) [%] | inhibition at 10 µM ([2]; 10^-5 M) [%] | % displacement of the labeled ligand, A2, 1E-7M ([2]; 10^-7 M) [%] | % displacement of the labeled ligand, A2, 1E-5M ([2]; 10^-5 M, 10 µM) [%] | inhibition at 0.1 µM ([1]; 10^-7 M, read-out: % displacement of the labeled ligand, A1, 1E-7M) [%] | inhibition at 0.1 µM ([2]; 10^-7 M, read-out: % displacement of the labeled ligand, A2, 1E-7M) [%] | SMILES | ED50 [3] [mg/kg] | Phenylbenzoquinone test 50% inhibitory dose ([3]; p.o.)
1 | 97 | 44 | 96 | 73 | – | – | – | O=C(NC1CC1)[C@H]1O[C@@H](n2cnc3c(NCC4CC4(c4ccccc4)c4ccccc4)ncnc32)[C@H](O)[C@@H]1O (single isomer, unassigned) [Example 43, β-D-Ribofuranuronamido-N-cyclopropyl-1-deoxy-1-[6-[(+)-[[2,2-diphenylcyclopropyl]methyl]amino]-9H-purin-9-yl]] | 1.2 | –
2 | 90 | 10 | – | 19 | 100 | – | – | O=C(NC1CC1)[C@H]1O[C@@H](n2cnc3c(NCC4CC4(c4ccccc4)c4ccccc4)ncnc32)[C@H](O)[C@@H]1O (single isomer, unassigned) [Example 44, β-D-Ribofuranuronamido-N-cyclopropyl-1-deoxy-1-[6-[(-)-[[2,2-diphenylcyclopropyl]methyl]amino]-9H-purin-9-yl]] | – | ≈ 1 mg/kg
3 | 93 | – | 79 | – | – | 20 | 12 | O=C(NC1CC1)[C@H]1O[C@@H](n2cnc3c(NCC4CC45c4ccccc4CCc4ccccc45)ncnc32)[C@H](O)[C@@H]1O (mixture of isomers) [Example 45, β-D-Ribofuranuronamido-N-cyclopropyl-1-deoxy-1-[6-[(±)-2-[spiro[10',11'-dihydrocyclopropane-1,5'-[5H]-dibenzo[a,d]cycloheptene]methyl]amino]-9H-purin-9-yl]] | 1.6 | –

From patent US5219839A, “Adenosine derivatives, their methods of preparation and pharmaceutical compositions in which they are present” (Laboratories UPSA, priority 1992, dated 1993)
